The experiment has as its target T1, 15-PGDH/HPGD (Homo sapiens, UniProt P15428).
T1 construct: purchased R&D System 5660-DH
T1 sequence (P15428 1-266): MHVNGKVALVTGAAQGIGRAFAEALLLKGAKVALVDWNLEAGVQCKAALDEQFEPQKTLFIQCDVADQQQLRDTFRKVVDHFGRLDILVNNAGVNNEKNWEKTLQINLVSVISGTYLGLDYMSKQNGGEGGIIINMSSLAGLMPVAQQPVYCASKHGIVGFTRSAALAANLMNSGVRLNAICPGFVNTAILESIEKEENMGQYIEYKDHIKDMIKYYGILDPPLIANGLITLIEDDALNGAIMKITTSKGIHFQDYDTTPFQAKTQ
The experiment can be described thus: hPGDH inhibitor screening biochemical assay. As to conditions: 10 nM enzyme, 15 μM PGE2, 0.25 mM NAD, fluorescence ex/em 340/485 nm. As for the experimental part:
A hydroxyprostaglandin dehydrogenase inhibition screening biochemical assay can be performed to assess the synthesized inhibitors provided herein. Provided herein is an exemplary biochemical assay for hPGDH inhibitor screening.
The in vitro biochemical assay can be performed in white, 384 plates in total 20 μl reaction volume consisting of 10 nM of 15-PGDH/HPGD (R&D System #5660-DH), 15 μM Prostaglandin E2 (Sigma, C8 t #P5640-10 MG) and 0.25 mM β-Nicotinamide adenine dinucleotide sodium salt (Sigma, C8 t #N0632-5G) made in reaction buffer (50 mM Tris-HCl, pH 7.5, 0.01% Tween 20) at 10-point dose response curve for test/tool compounds. Briefly, 5 μl (4×) of compounds solution and 5 μl (final concentration, 10 nM) of enzyme solution is added to white 384 well plates and incubated for 10 mins at 37° C. 5 μl (4×) of […] and 5 μl (4×) of β-Nicotinamide adenine dinucleotide sodium salt is added to the wells and incubated for 10 mins at room temperature. Fluorescence is recorded at ex/em=340 nm/485 nm. The percentage (%) inhibition of enzyme activity was determined relative to positive control (1% DMSO) and IC50 was calculated using GraphPad prism software (four parameter-variable slope equation).

`C[C@@]1(O)CCCN(C(=O)c2cnc3c(ccn3-c3cccc(-c4nnc[nH]4)c3)c2)C1` [Compound B-244] registered an IC50 of under 100 nM.

The molecule `CO[C@@H]1CCCN(C(=O)c2cnc3c(ccn3-c3ccc(-c4nnc[nH]4)c(Cl)c3)c2)C1` [Compound B-245] gave an IC50 of under 100 nM.

On to `CO[C@@H]1CCCN(C(=O)c2cnc3c(ccn3-c3ccc(-c4nnc[nH]4)c(F)c3)c2)C1` [Compound B-246], for which the 50% inhibitory concentration (IC50) is under 100 nM.

As for `CO[C@H]1CCCN(C(=O)c2cnc3c(ccn3-c3ccc(-c4nnc[nH]4)c(F)c3)c2)C1` [Compound B-247], the IC50 is under 100 nM.

Consider `C[C@]1(O)CCCN(C(=O)c2cnc3c(ccn3-c3ccc(-c4nnc[nH]4)cc3)c2)C1` [Compound B-248], for which the IC50 is under 100 nM.

For the molecule `C[C@]1(O)CCCN(C(=O)c2cnc3c(ccn3-c3cccc(-c4nnc[nH]4)c3)c2)C1` [Compound B-249], the IC50 is under 100 nM.

For the molecule `CO[C@H]1CCCN(C(=O)c2cnc3c(ccn3-c3cc(Cl)cc(-c4nnc[nH]4)c3)c2)C1` [Compound B-250], the IC50 is under 100 nM.

For `O=C(c1cnc2c(ccn2-c2cc(Cl)cc(-c3nnc[nH]3)c2)c1)N1CCSCC1` [Compound B-251], the IC50 is under 100 nM.

For the molecule `CO[C@H]1CCCN(C(=O)c2cnc3c(ccn3-c3ccc(-c4nnc[nH]4)c(Cl)c3)c2)C1` [Compound B-252], the IC50 is under 100 nM.

`O=C(c1cnc2c(ccn2-c2ccc(-c3nnc[nH]3)c(Cl)c2)c1)N1CCSCC1` [Compound B-253] gave an IC50 of under 100 nM.

As to `O=C(c1cnc2c(ccn2-c2ccc(-c3nnc[nH]3)c(F)c2)c1)N1CCSCC1` [Compound B-254], the IC50 was under 100 nM.

`Cc1cc(-n2ccc3cc(C(=O)N4CCC(F)(F)CC4)cnc32)ccc1-c1nnc[nH]1` [Compound B-255] showed an IC50 of under 100 nM.

Molecule `CC(C)OC(=O)Nc1cncc(-n2ccc3cc(C(=O)N4CCSCC4)cnc32)c1` [Compound B-256] had an IC50 of under 100 nM.

The molecule `O=C(c1cnc2c(ccn2-c2cc(Cl)cc(-c3nnc[nH]3)c2)c1)N1CC[S+]([O-])CC1` [Compound B-257] gave an IC50 of under 100 nM.

Regarding `CC1(O)CCCN(C(=O)c2cnc3c(ccn3-c3ccc(-c4nnc[nH]4)c(Cl)c3)c2)C1` (stereo not drawn) [Compound B-258], the IC50 was under 100 nM.

`O=C(c1cnc2c(ccn2-c2cccc(-c3nnc[nH]3)c2)c1)N1CCC[C@H](O)C1` [Compound B-260] yielded an IC50 of under 100 nM.

The molecule `O=C(c1cnc2c(ccn2-c2ccc(-c3nnc[nH]3)c(Cl)c2)c1)N1CC[S+]([O-])CC1` [Compound B-261] registered an IC50 of 100 to 1000 nM.

`COc1cc(-c2nnc[nH]2)cc(-n2ccc3cc(C(=O)N4CCC(F)(F)CC4)cnc32)c1` [Compound B-263] came in with an IC50 of under 100 nM.

On to `O=C(c1cnc2c(ccn2-c2cc(Cl)cc(-c3nnc[nH]3)c2)c1)N1CCC[C@H](O)C1` [Compound B-265], for which the 50% inhibitory concentration (IC50) was under 100 nM.

For `COc1cc(-n2ccc3cc(C(=O)N4CCC(F)(F)CC4)cnc32)ccc1-c1nnc[nH]1` [Compound B-266], the IC50 was under 100 nM.

In the case of `O=C(c1cnc2c(ccn2-c2ccc(-c3nnc[nH]3)cc2F)c1)N1CCC(F)(F)CC1` [Compound B-267], the IC50 is under 100 nM.

`O=C(c1cnc2c(ccn2-c2ccc(-c3nnc[nH]3)c(F)c2)c1)N1CC[S+]([O-])CC1` [Compound B-268]: the IC50 is under 100 nM.

`O=C(c1cnc2c(ccn2-c2cccc(-c3ncc[nH]3)c2)c1)N1CCC[C@@H](O)C1` [Compound B-269] registered an IC50 of under 100 nM.

`Cc1cc(-n2ccc3cc(C(=O)N4CCC(F)(F)CC4)cnc32)ccc1C(=O)O` [Compound B-270]: the IC50 is under 100 nM.

As for `Cc1ccc(-c2nnc[nH]2)cc1-n1ccc2cc(C(=O)N3CCC(F)(F)CC3)cnc21` [Compound B-271], the IC50 is under 100 nM.

Molecule `O=C(c1cnc2c(ccn2-c2cc(-c3nnc[nH]3)ccc2F)c1)N1CCC(F)(F)CC1` [Compound B-272] displayed an IC50 of under 100 nM.

`N#Cc1cc(-n2ccc3cc(C(=O)N4CCC(F)(F)CC4)cnc32)ccc1-c1nnc[nH]1` [Compound B-273]: the IC50 was under 100 nM.

In general, IC50 refers to the concentration that gives 50% inhibition.

Values taken from US20240294519A1, “PYRROLO[2,3-b]PYRIDINE PGDH INHIBITORS AND METHODS OF MAKING AND USING” (EPIRIUM BIO INC., priority 2021, published 2024).
